Measured values published in US12466813B2, “PRC1 inhibitors and methods of treatment therewith” (The Regents of the University of Michigan, priority 2018, dated 2025).
pKd: −log10 of the molar value.

The molecules below were run against T1, RING1B-BMI1 (Homo sapiens, UniProt Q99496) (assay: KD classes of Table A (direct binding to Ring1B-Bmi1)). Details: class given in Table A.
T1 sequence (Q99496 1-336): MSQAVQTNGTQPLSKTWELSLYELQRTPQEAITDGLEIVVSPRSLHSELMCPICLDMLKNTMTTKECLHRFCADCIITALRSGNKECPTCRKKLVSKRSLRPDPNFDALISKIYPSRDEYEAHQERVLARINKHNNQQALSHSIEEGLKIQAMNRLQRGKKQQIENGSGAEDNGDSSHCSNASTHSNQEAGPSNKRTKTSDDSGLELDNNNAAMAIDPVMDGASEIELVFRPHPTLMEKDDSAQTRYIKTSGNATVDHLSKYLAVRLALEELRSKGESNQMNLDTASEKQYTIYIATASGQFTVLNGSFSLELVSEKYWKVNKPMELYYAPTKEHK
T1 sequence (P35226 1-326 partner): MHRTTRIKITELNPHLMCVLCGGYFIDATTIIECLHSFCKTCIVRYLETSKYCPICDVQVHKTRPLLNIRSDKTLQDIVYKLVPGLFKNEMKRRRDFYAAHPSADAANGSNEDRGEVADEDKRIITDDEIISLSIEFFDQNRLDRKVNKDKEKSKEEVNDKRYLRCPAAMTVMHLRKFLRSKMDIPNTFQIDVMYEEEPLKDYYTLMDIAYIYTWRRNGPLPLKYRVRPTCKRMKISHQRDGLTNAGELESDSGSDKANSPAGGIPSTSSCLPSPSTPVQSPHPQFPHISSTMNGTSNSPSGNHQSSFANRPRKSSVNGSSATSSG
Description: Experiments were conducted during development of embodiments herein to develop small molecule inhibitors of PRC1 by targeting the Ring1B-BMI1 E3 ligase. These compounds bind directly to Ring1B-Bmi1 with low-micromolar affinity and inhibit PRC1 in vitro and in cells. […] Experiments were conducted during development of embodiments herein to test COMPOUND 1 in leukemia stem cell models represented by TEX cells (Ref. 22; herein incorporated by reference in its entirety) and M9-ENL1 cells (Ref. 23; herein incorporated by reference in its entirety). […] In some embodiments, COMPOUND 1 and COMPOUND 1 analogs are find use as agents in targeting leukemia and other cancer stem cells.
The compounds listed in Table A have been synthesized and/or tested for activity in inhibiting activity of PRC1 complex, and are within the scope herein.

| SMILES | pKd |
| --- | --- |
| CCc1c(-c2cccc3[nH]ccc23)[nH]c(C(=O)O)c1-c1c(Cl)cc(OC)c2[nH]ccc12 [compound 18] | > 4.70 |
| CC(C)c1c(-c2cccc3c(N)c[nH]c23)[nH]c(C(=O)O)c1-c1cccc2[nH]ccc12 [compound 223] | > 4.70 |
| CC(C)c1c(-c2cc(F)cc3[nH]ccc23)[nH]c(C(=O)O)c1-c1c(F)ccc2[nH]ccc12 [compound 243] | > 4.70 |
| O=C(O)c1ccc(-c2ccc(Cl)cc2)[nH]1 [compound 143] | < 4.00 |
| COc1cc(OC)cc(-c2ccc(C(=O)O)[nH]2)c1 [compound 133] | < 4.00 |
| CCn1c(C(=O)O)c(-c2cc(OC)cc3[nH]ccc23)c(C(C)C)c1-c1cc(F)cc2[nH]ccc12 [compound 71] | > 4.70 |
| CC(C)c1c(-c2ccnc3[nH]ccc23)[nH]c(C(=O)O)c1-c1c(Cl)ccc2[nH]ccc12 [compound 75] | > 4.70 |
| NCCn1ccc2c(-c3ccc(C(=O)O)[nH]3)cccc21 [compound 153] | < 4.00 |
| CCc1ccc2[nH]ccc2c1-c1c(C(=O)O)[nH]c(-c2cc(F)cc3[nH]ccc23)c1C(C)C [compound 242] | > 4.70 |
| CC(C)c1cc(-c2c(C(=O)O)[nH]c(-c3cc(F)cc4[nH]ccc34)c2C(C)C)c2ccn(CC(=O)O)c2c1 [compound 55] | > 4.70 |
| CNCc1ccc2[nH]ccc2c1-c1c(C(=O)O)[nH]c(-c2cc(F)cc3[nH]ccc23)c1C(C)C [compound 239] | > 4.70 |
| COc1cc(Cl)c(-c2c(C(=O)O)[nH]c(-c3cccc4[nH]ccc34)c2C(C)C)cc1N [compound 5] | > 4.70 |
| CCc1c(-c2cccc3[nH]ccc23)[nH]c(C(=O)O)c1-c1ccc(N)cc1 [compound 105] | < 4.00 |
| COc1cc(-c2c(C(=O)O)[nH]c(-c3cc(F)cc4[nH]ccc34)c2CC(C)C)c2cc[nH]c2c1 [compound 174] | > 4.70 |
| CCC(C)c1c(-c2cc(F)cc3[nH]ccc23)[nH]c(C(=O)O)c1-c1cc(OC)cc2[nH]ccc12 (stereo not drawn) [compound 171] | > 4.70 |
| Cc1ccc2[nH]ccc2c1-c1c(C(=O)O)[nH]c(-c2cc(F)cc3[nH]ccc23)c1C(C)C [compound 241] | > 4.70 |
| CC(C)c1c(-c2cc(F)cc3[nH]ccc23)[nH]c(C(=O)O)c1-c1ccnc2[nH]c(C3=CCNCC3)cc12 [compound 255] | > 4.70 |
| O=C(O)c1ccc(-c2cccc3c2ccn3CCO)[nH]1 [compound 146] | < 4.00 |
| Cc1cc(-c2cccc3[nH]ccc23)[nH]c1C(=O)O [compound 120] | < 4.00 |
| CC(C)c1c(-c2cc(F)cc3[nH]ccc23)[nH]c(C(=O)O)c1-c1cc(OC2CCC2)cc2[nH]ccc12 [compound 235] | > 4.70 |
| Cc1cnc2[nH]ccc2c1-c1c(C(=O)O)[nH]c(-c2cc(F)cc3[nH]ccc23)c1C(C)C [compound 209] | > 4.70 |
| CCC(C)c1c(-c2cccc3[nH]ccc23)[nH]c(C(=O)O)c1-c1cccc2[nH]ccc12 (stereo not drawn) [compound 73] | > 4.70 |
| CCc1c(-c2cccc3c2ccn3C)[nH]c(C(=O)O)c1-c1ccc(OC)cc1 [compound 108] | < 4.00 |

Next, values leading:

| pKd | SMILES |
| --- | --- |
| > 4.70 | CC(C)c1c(-c2cc(F)cc3[nH]ccc23)[nH]c(C(=O)O)c1-c1cccc2c1ccn2CS(N)(=O)=O [compound 263] |
| 4.30 to 4.70 | CCc1c(-c2cccc3[nH]ccc23)[nH]c(C(=O)O)c1-c1cccc(Cl)c1Cl [compound 84] |
| > 4.70 | CC(C)c1c(-c2cc(F)cc3[nH]ccc23)[nH]c(C(=O)O)c1-c1cccc2[nH]c(CS(C)(=O)=O)cc12 [compound 230] |
| > 4.70 | C#CCCCCC(=O)NCCCCCC(=O)NCCc1c[nH]c2cc(F)cc(-c3[nH]c(C(=O)O)c(-c4c(Cl)ccc5[nH]ccc45)c3C(C)C)c12 [compound 68] |
| > 4.70 | O=C(O)c1[nH]c(-c2cccc3[nH]ccc23)c(C2CC2)c1-c1cccc2[nH]ccc12 [compound 29] |
| < 4.00 | Cn1ccc2c(-c3[nH]c(C(=O)O)c4c3CCCC4)cccc21 [compound 110] |
| > 4.70 | COc1cc(-c2[nH]c(C(=O)O)c(-c3c(Cl)ccc4[nH]ccc34)c2C(C)C)c2cc[nH]c2c1 [compound 11] |
| > 4.70 | CCC(C)c1c(-c2cc(F)cc3[nH]ccc23)[nH]c(C(=O)O)c1-c1cc(OC)cc2[nH]c(CO)cc12 (stereo not drawn) [compound 195] |
| > 4.70 | CC(C)c1c(-c2cc(F)cc3[nH]ccc23)[nH]c(C(=O)O)c1-c1cc(C(=O)O)cc2[nH]ccc12 [compound 197] |
| > 4.70 | CCc1c(-c2c(C)ccc3[nH]ccc23)[nH]c(C(=O)O)c1-c1cccc2[nH]ccc12 [compound 2] |
| < 4.00 | O=C(O)c1ccc(-c2ccccc2)s1 [compound 152] |
| > 4.70 | CC(C)c1c(-c2cc(F)cc3[nH]ccc23)[nH]c(C(=O)O)c1-c1cc(OC(F)(F)F)cc2[nH]ccc12 [compound 48] |
| > 4.70 | CC(C)c1c(-c2cc(F)cc3[nH]ccc23)[nH]c(C(=O)O)c1-c1cccc2[nH]c(S(N)(=O)=O)cc12 [compound 227] |
| > 4.70 | CC(C)c1c(-c2cc(F)cc3[nH]ccc23)[nH]c(C(=O)O)c1-c1cccc(Oc2nccs2)c1 [compound 64] |
| > 4.70 | CSCc1ccc2[nH]ccc2c1-c1c(C(=O)O)[nH]c(-c2cc(F)cc3[nH]ccc23)c1C(C)C [compound 238] |
| 4.00 to 4.30 | CCc1c(-c2cccc3c2ccn3C)[nH]c(C(=O)O)c1-c1ccccc1 [compound 101] |

| pKd | SMILES |
| --- | --- |
| > 4.70 | CC(C)c1c(-c2cc(F)cc3[nH]ccc23)[nH]c(C(=O)O)c1-c1cccc2[nH]c(-c3cc(O)no3)cc12 [compound 226] |
| > 4.70 | CCc1c(-c2cccc3[nH]ccc23)[nH]c(C(=O)O)c1-c1ccc2cc[nH]c2c1 [compound 25] |
| > 4.70 | CC(C)c1c(-c2cc(F)cc3[nH]ccc23)[nH]c(C(=O)O)c1-c1cccc2[nH]c(-c3nnn[nH]3)cc12 [compound 194] |
| 4.30 to 4.70 | CCc1c(-c2cccc3[nH]ccc23)[nH]c(C(=O)O)c1-c1ccccc1C [compound 83] |
| > 4.70 | COc1ccc2[nH]ccc2c1-c1c(C(=O)O)[nH]c(-c2cc(F)cc3[nH]ccc23)c1C(C)C [compound 244] |
| > 4.70 | CC(C)c1c(-c2cc(F)cc3[nH]ccc23)[nH]c(C(=O)O)c1-c1cccc2[nH]c(C(N)=O)cc12 [compound 190] |
| > 4.70 | CC(C)c1c(-c2cc(F)cc3[nH]ccc23)[nH]c(C(=O)O)c1-c1cccc2c1ccn2CCNS(C)(=O)=O [compound 265] |
| > 4.70 | COc1ccc(-c2c(C(=O)O)[nH]c(-c3cccc4[nH]ccc34)c2C(C)C)c(Cl)c1 [compound 19] |
| > 4.70 | CC(C)c1c(-c2cc(F)cc3[nH]ccc23)[nH]c(S(C)(=O)=O)c1-c1cccc2[nH]ccc12 [compound 218] |
| < 4.00 | Nc1ccccc1-c1ccc(C(=O)O)[nH]1 [compound 147] |
| < 4.00 | CCOc1cccc(-c2ccc(C(=O)O)[nH]2)c1 [compound 148] |
| > 4.70 | CC(C)c1c(-c2cc(F)cc3[nH]ccc23)[nH]c(S(N)(=O)=O)c1-c1cccc2[nH]ccc12 [compound 217] |
| > 4.70 | CC(C)c1c(-c2cc(F)cc3[nH]ccc23)[nH]c(C(=O)O)c1-c1cc(OC2CCCC2)cc2[nH]ccc12 [compound 234] |
| > 4.70 | COc1cc(-c2c(C(=O)O)[nH]c(-c3cc(F)cc4[nH]ccc34)c2C(C)C)c2c(C)c[nH]c2c1 [compound 183] |
| > 4.70 | CC(C)c1c(-c2cc(F)cc3[nH]ccc23)[nH]c(C(=O)O)c1-c1ccc2c(c1)OCCO2 [compound 61] |
